Several values for one entry are separate records, joined by “and”; a condition that tells them apart may be missing. Equal entries are not always repeated.
How the values were obtained:
[1] = tested on: FLK-1 receptor; assay: FLK-1 Assay (cellular/catalytic ELISA, VEGF-stimulated phosphotyrosine); assay type: cell-based; parameters: concentration or dose not given beside the values
Procedure: (§1) The cellular/catalytic assays described herein are performed in an ELISA format. The general procedure is as follows: a compound is introduced to cells expressing the test kinase, either naturally or recombinantly, for a selected period of time after which, if the test kinase is a receptor, a ligand known to activate the receptor is added. The cells are lysed and the lysate is transferred to the wells of an ELISA plate previously coated with a specific antibody recognizing the substrate of the enzymatic phosphorylation reaction. Non-substrate components of the cell lysate are washed away and the amount of phosphorylation on the substrate is detected with an antibody specifically recognizing phosphotyrosine compared with control cells that were not contacted with a test compound.
An ELISA assay is conducted to measure the kinase activity of the FLK-1 receptor and more specifically, the inhibition or activation of TK activity on the FLK-1 receptor. Specifically, the following assay can be conducted to measure kinase activity of the FLK-1 receptor in cells genetically engineered to express Flk-1.
a. Corning 96-well ELISA plates (Corning Catalog No. 25805-96);
b. Cappel goat anti-rabbit IgG (catalog no. 55641);
c. PBS (Gibco Catalog No. 450-1300EB);
d. TBSW Buffer (50 mM Tris (pH 7.2), 150 mM NaCl and 0.1% Tween-20);
e. Ethanolamine stock (10% ethanolamine (pH 7.0), stored at 4° C.);
f. HNTG buffer (20 mM HEPES buffer (pH 7.5), 150 mM NaCl, 0.2% Triton X-100, and 10% glycerol);
g. EDTA (0.5 M (pH 7.0) as a 100× stock);
h. Sodium orthovanadate (0.5 M as a 100× stock);
i. Sodium pyrophosphate (0.2 M as a 100× stock);
j. NUNC 96 well V bottom polypropylene plates (Applied Scientific Catalog No. AS-72092);
k. NIH3T3 C7#3 Cells (FLK-1 expressing cells);
l. DMEM with 1× high glucose L-Glutamine (catalog No. 11965-050);
n. L-glutamine, Gibco (catalog no. 25030-016);
o. VEGF, PeproTech, Inc. (catalog no. 100-20)(kept as 1 μg/100 μl stock in Milli-Q dH2O and stored at −20° C.;
p. Affinity purified anti-FLK-1 antiserum;
q. UB40 monoclonal antibody specific for phosphotyrosine (see, Fendley, et al., 1990, Cancer Research 50:1550-1558);
r. EIA grade Goat anti-mouse IgG-POD (BioRad catalog no. 172-1011);
s. 2,2-azino-bis(3-ethylbenz-thiazoline-6-sulfonic acid (ABTS) solution (100 mM citric acid (anhydrous), 250 mM Na2HPO4 (pH 4.0), 0.5 mg/ml ABTS (Sigma catalog no. A-1888)), solution should be stored in dark at 4° C. until ready for use;
t. H2O2 (30% solution) (Fisher catalog no. H325);
u. ABTS/ H2O2 (15 ml ABTS solution, 2 μl H2O2) prepared 5 minutes before use and left at room temperature;
v. 0.2 M HCl stock in H2O;
w. dimethylsulfoxide (100%) (Sigma Catalog No. D-8418); and
y. Trypsin-EDTA (Gibco BRL Catalog No. 25200-049).
1. Coat Corning 96-well ELISA plates with 1.0 μg per well Cappel Anti-rabbit IgG antibody in 0.1M Na2CO3 pH 9.6. Bring final volume to 150 μl per well. Coat plates overnight at 4° C. Plates can be kept up to two weeks when stored at 4° C.
2. Grow cells in Growth media (DMEM, supplemented with 2.0 mM L-Glutamine, 10% FBS) in suitable culture dishes until confluent at 37° C., 5% CO2.
3. Harvest cells by trypsinization and seed in Corning 25850 polystyrene 96-well round bottom cell plates, 25,000 cells/well in 200 μl of growth media.
4. Grow cells at least one day at 37° C., 5% CO2.
5. Wash cells with D-PBS 1×.
6. Add 200 μl/well of starvation media (DMEM, 2.0 mM 1-Glutamine, 0.1% FBS). Incubate overnight at 37° C., 5% CO2.
7. Dilute Compounds 1:20 in polypropylene 96 well plates using starvation media. Dilute dimethylsulfoxide 1:20 for use in control wells.
8. Remove starvation media from 96 well cell culture plates and add 162 μl of fresh starvation media to each well.
9. Add 18 μl of 1:20 diluted compound dilution (from step 7) to each well plus the 1:20 dimethylsulfoxide dilution to the control wells (+/− VEGF), for a final dilution of 1:200 after cell stimulation. Final dimethylsulfoxide is 0.5%. Incubate the plate at 37° C., 5% CO2 for two hours.
10. […]

[2] = tested on: PDGF-R; assay: PDGF-R Assay (cellular ELISA, U1242 cells); assay type: cell-based; parameters: concentration or dose not given beside the values
Procedure: as §1
All cell culture media, glutamine, and fetal bovine serum can be purchased from Gibco Life Technologies (Grand Island, N.Y.) unless otherwise specified. All cells are grown in a humid atmosphere of 90-95% air and 5-10% CO2 at 37° C. All cell lines are routinely subcultured twice a week and are negative for mycoplasma as determined by the Mycotect method (Gibco).
For ELISA assays, cells (U1242, obtained from Joseph Schlessinger, NYU) are grown to 80-90% confluency in growth medium (MEM with 10% FBS, NEAA, 1 mM NaPyr and 2 mM GLN) and seeded in 96-well tissue culture plates in 0.5% serum at 25,000 to 30,000 cells per well. After overnight incubation in 0.5% serum-containing medium, cells are changed to serum-free medium and treated with test compound for 2 hr in a 5% CO2, 37° C. incubator. Cells are then stimulated with ligand for 5-10 minute followed by lysis with HNTG (20 mM Hepes, 150 mM NaCl, 10% glycerol, 5 mM EDTA, 5 mM Na3VO4, 0.2% Triton X-100, and 2 mM NaPyr). Cell lysates (0.5 mg/well in PBS) are transferred to ELISA plates previously coated with receptor-specific antibody and which had been blocked with 5% milk in TBST (50 mM Tris-HCl pH 7.2, 150 mM NaCl and 0.1% Triton X-100) at room temperature for 30 min. Lysates are incubated with shaking for 1 hour at room temperature. The plates are washed with TBST four times and then incubated with polyclonal anti-phosphotyrosine antibody at room temperature for 30 minutes. Excess anti-phosphotyrosine antibody is removed by rinsing the plate with TBST four times. Goat anti-rabbit IgG antibody is added to the ELISA plate for 30 min at room temperature followed by rinsing with TBST four more times. ABTS (100 mM citric acid, 250 mM Na2HPO4 and 0.5 mg/mL 2,2′-azino-bis (3-ethylbenzthiazoline-6-sulfonic acid)) plus H2O2 ([…] 30% H2O2 to 10 ml ABTS) is added to the ELISA plates to start color development. Absorbance at 410 nm with a reference wavelength of 630 nm is recorded about 15 to 30 min after ABTS addition.

SMILES | Flk Kinase % Inhibition (P.110) [1] | PDGF Kinase % Inhibition (P.119) [2]
Cc1c(Br)cc(Br)c2c1C(=Cc1ccc(F)cc1)C(=O)N2 [10717/H05] | 5.0% | 
Cc1c(Br)cc(Br)c2c1C(=Cc1c[nH]c3ccccc13)C(=O)N2 [10717/H06] | 12.5% | 
Cc1ccc(C=C2C(=O)Nc3c(Br)cc(Br)c(C)c32)s1 [10717/H07] | 1.1% | 
Cc1c(Br)cc(Br)c2c1C(=Cc1ccc(Br)cc1)C(=O)N2 [10717/H08] | −8.4% | 
Cc1c(Br)cc(Br)c2c1C(=Cc1ccc[nH]1)C(=O)N2 [10717/H09] | −17.5% | 
COc1cccc(O)c1C=C1C(=O)Nc2c(Br)cc(Br)c(C)c21 [10717/H10] | −5.0% | 
Cc1[nH]c(C=C2C(=O)Nc3c(Br)cc(Br)c(C)c32)c(Br)c1Br [10717/H11] | −0.4% | 
Cc1c(Br)cc(Br)c2c1C(=Cc1ccc(Br)o1)C(=O)N2 [10726/H05] | −6.1% | −38.0%
Cc1cn(C)cc1C=C1C(=O)Nc2c(Br)cc(Br)c(C)c21 [10726/H06] | 17.5% | −20.9%
Cc1c(Br)cc(Br)c2c1C(=Cc1cc(O)c3c(c1O)CCCC3)C(=O)N2 [10726/H07] | −9.5% | −30.4%
Cc1c(Br)cc(Br)c2c1C(=C1C(=O)Nc3ccc(F)cc31)C(=O)N2 [10726/H08] | −15.0% | 15.1%
Cc1c(Br)cc(Br)c2c1C(=C1C(=O)Nc3ccccc31)C(=O)N2 [10726/H09] | 1.5% | 15.1%
CCc1ccc(C=C2C(=O)Nc3c(Br)cc(Br)c(C)c32)s1 [10726/H10] | 11.0% | 6.9%
COc1ccc(C=C2C(=O)Nc3c(Br)cc(Br)c(C)c32)cc1 [10726/H11] | 12.9% | −0.1%
CCN(CC)c1ccc(C=C2C(=O)Nc3c(Br)cc(Br)c(C)c32)cc1 [10727/H02] | −1.2% | −33.6%
CCc1cc(CC)c(C=C2C(=O)Nc3c(Br)cc(Br)c(C)c32)[nH]1 [10727/H03] | 4.3% | −20.5%
Cc1c(Br)cc(Br)c2c1C(=Cc1cc(Cl)cc(Br)c1O)C(=O)N2 [10727/H04] | 1.8% | 13.7%
Cc1c(Br)cc(Br)c2c1C(=Cc1ccccc1Sc1ccc(Cl)cc1)C(=O)N2 [10727/H05] | 5.5% | −28.5%

SMILES | Flk Kinase % Inhibition (P.110) [1] | PDGF Kinase % Inhibition (P.119) [2]
Cc1c(Br)cc(Br)c2c1C(=Cc1cc3c(cc1Cl)OCO3)C(=O)N2 [10727/H06] | −4.4% | −40.8%
Cc1c(Br)cc(Br)c2c1C(=Cc1coc3ccccc3c1=O)C(=O)N2 [10727/H07] | −9.7% | −37.2%
Cc1c(Br)cc(Br)c2c1C(=Cc1cccc(C#N)c1)C(=O)N2 [10727/H08] | 2.9% | −27.0%
Cc1c(Br)cc(Br)c2c1C(=Cc1ccc(C#N)cc1)C(=O)N2 [10727/H09] | −1.4% | −11.7%
Cc1c(Br)cc(Br)c2c1C(=Cc1cc(O)ccc1O)C(=O)N2 [10727/H10] | −8.3% | 10.1%
COc1cccc(C=C2C(=O)Nc3c(Br)cc(Br)c(C)c32)c1OC [10727/H11] | 3.7% | 2.8%
COc1ccc(OC)c(C=C2C(=O)Nc3c(Br)cc(Br)c(C)c32)c1 [10728/H02] | −13.3% | −9.3%
COc1cccc(OC)c1C=C1C(=O)Nc2c(Br)cc(Br)c(C)c21 [10728/H03] | −2.1% | −10.6%
COc1cc(C=C2C(=O)Nc3c(Br)cc(Br)c(C)c32)cc(OC)c1 [10728/H04] | −4.3% | −5.7%
COc1cc(N(C)C)ccc1C=C1C(=O)Nc2c(Br)cc(Br)c(C)c21 [10728/H05] | 1.1% and −4.4% | −10.6% and −5.3%
Cc1c(Br)cc(Br)c2c1C(=Cc1ccc3c(c1)Cc1ccccc1-3)C(=O)N2 [10728/H06] | 7.9% | −25.7%
Cc1c(Br)cc(Br)c2c1C(=Cc1cccc(C(F)(F)F)c1F)C(=O)N2 [10728/H07] | 1.5% | −1.7%
Cc1c(Br)cc(Br)c2c1C(=Cc1c(F)cccc1C(F)(F)F)C(=O)N2 [10728/H09] | 0.7% | −6.2%
Cc1c(Br)cc(Br)c2c1C(=Cc1ccccc1OCC(=O)O)C(=O)N2 [10728/H10] | −3.8% | 4.5%
COc1cc(C=C2C(=O)Nc3c(Br)cc(Br)c(C)c32)cc2c1OCO2 [10728/H11] | 3.3% | −16.8%
COc1ccc2ccccc2c1C=C1C(=O)Nc2c(Br)cc(Br)c(C)c21 [10729/H02] | 14.3% | 2.3%
COc1ccc(C=C2C(=O)Nc3c(Br)cc(Br)c(C)c32)c2ccccc12 [10729/H03] | 18.3% | −0.7%

Reference: US20020026053A1, “Novel 3-(substituted) -2- indolinones compounds and use thereof as inhibitors of protein kinase activity” (priority 1997, published 2002)
